According to ChEMBL document CHEMBL1777795, “From benzimidazole to indole-5-carboxamide Thumb Pocket I inhibitors of HCV NS5B polymerase. Part 1: indole C-2 SAR and discovery of diamide derivatives with nanomolar potency in cell-based subgenomic replicons” (Bioorg Med Chem Lett, 2011):

Key:
[1] = (§1) Permeability from apical to basolateral side of human Caco2 cells; assay type: ADME, cell-based, Caco-2; conditions: Caco-2, read-out: permeability
[2] = AUC in Sprague-Dawley rat at 10 mg/kg, po; assay type: ADME, organism-based; parameters: dose 10 mg/kg, route oral; conditions: plasma
[3] = Cmax in Sprague-Dawley rat at 10 mg/kg, po; assay type: ADME, organism-based; parameters: dose 10 mg/kg, route oral; conditions: in vivo
[4] = Mean residence time in Sprague-Dawley rat at 10 mg/kg, po; assay type: ADME, organism-based; parameters: dose 10 mg/kg, route oral; conditions: in vivo
Caco-2 = assay: as §1; assay type: ADME, cell-based; conditions: caco-2, BLD = below limit of detection

SMILES | Papp A→B [1] [nm/s] | other results
Cc1ccc(-c2c(C3CCCCC3)c3ccc(C(=O)NC(C)(C)C(=O)Nc4ccc(/C=C/C(=O)O)cc4)cc3n2C)cn1 | 26 | 
Cn1c(-c2cccnc2)c(C2CCCCC2)c2ccc(C(=O)NC(C)(C)C(=O)Nc3ccc(/C=C/C(=O)O)cc3)cc21 | 94 | 
COc1cccc(-c2c(C3CCCCC3)c3ccc(C(=O)NC(C)(C)C(=O)Nc4ccc(/C=C/C(=O)O)cc4)cc3n2C)n1 | 240 | 
Cn1c(-c2ccncc2)c(C2CCCCC2)c2ccc(C(=O)NC(C)(C)C(=O)Nc3ccc(/C=C/C(=O)O)cc3)cc21 | 3 | 
Cn1c(-c2cnccn2)c(C2CCCCC2)c2ccc(C(=O)NC(C)(C)C(=O)Nc3ccc(/C=C/C(=O)O)cc3)cc21 | 70 | 
Cn1c(-c2ccccn2)c(C2CCCCC2)c2ccc(C(=O)NC(C)(C)C(=O)Nc3ccc(/C=C/C(=O)O)cc3)cc21 | 160 | AUC [2]: 870 nM·h; Cmax [3]: 1.23 µM; MRT [4]: 0.5 h
Cc1ccc(-c2c(C3CCCCC3)c3ccc(C(=O)NC(C)(C)C(=O)Nc4ccc(/C=C/C(=O)O)cc4)cc3n2C)nc1 | 164 | 
Cn1c(-c2nccs2)c(C2CCCCC2)c2ccc(C(=O)NC(C)(C)C(=O)Nc3ccc(/C=C/C(=O)O)cc3)cc21 | 85 | 
Cn1c(-c2cncnc2)c(C2CCCCC2)c2ccc(C(=O)NC(C)(C)C(=O)Nc3ccc(/C=C/C(=O)O)cc3)cc21 | 33 | 
Cc1cccc(-c2c(C3CCCCC3)c3ccc(C(=O)NC(C)(C)C(=O)Nc4ccc(/C=C/C(=O)O)cc4)cc3n2C)n1 | 69 | 
Cn1c(-c2cnco2)c(C2CCCCC2)c2ccc(C(=O)NC(C)(C)C(=O)Nc3ccc(/C=C/C(=O)O)cc3)cc21 | 50 | 
Cn1c(-c2ccoc2)c(C2CCCCC2)c2ccc(C(=O)NC(C)(C)C(=O)Nc3ccc(/C=C/C(=O)O)cc3)cc21 | 60 | 
Cn1c(-c2cccc3cccnc23)c(C2CCCCC2)c2ccc(C(=O)NC(C)(C)C(=O)Nc3ccc(/C=C/C(=O)O)cc3)cc21 | 34 | 
Cn1c(-c2ccc3ncccc3c2)c(C2CCCCC2)c2ccc(C(=O)NC(C)(C)C(=O)Nc3ccc(/C=C/C(=O)O)cc3)cc21 |  | permeability (Caco-2): BLD
Cn1c(-c2cccc(N)n2)c(C2CCCCC2)c2ccc(C(=O)NC(C)(C)C(=O)Nc3ccc(/C=C/C(=O)O)cc3)cc21 | 15 | AUC [2]: 1180 nM·h; Cmax [3]: 0.99 µM; MRT [4]: 3.4 h
Cn1c(-c2csc(-c3cccnc3)n2)c(C2CCCCC2)c2ccc(C(=O)NC(C)(C)C(=O)Nc3ccc(/C=C/C(=O)O)cc3)cc21 | 2 | 
